Reference: EP0580161A1, “Prophylactic and therapeutic treatment of Alzheimer's disease” (THE McLEAN HOSPITAL CORPORATION, priority 1992, dated 1994)
Read-outs that look alike come from different tables or passages of the source. Residues, ends and D or L forms follow the SMILES beside them. *: point of attachment. Cbz = O=C(OCc1ccccc1)*

Key:
mouse = conditions: cited from earlier work
calpain = conditions: cited from earlier work
m-calpain = target: T1, m-calpain (Rattus norvegicus, UniProt Q07009); assay: calpain inhibitory activity; format: biochemical; conditions: m-calpain extracted and purified from rat brain; read-out: calpain inhibitory activity IC₅₀
T1 construct: m-calpain which was extracted and purified from rat brain; from tissue; host or cells: rat brain
T1 sequence (Q07009 20-700 limits assumed): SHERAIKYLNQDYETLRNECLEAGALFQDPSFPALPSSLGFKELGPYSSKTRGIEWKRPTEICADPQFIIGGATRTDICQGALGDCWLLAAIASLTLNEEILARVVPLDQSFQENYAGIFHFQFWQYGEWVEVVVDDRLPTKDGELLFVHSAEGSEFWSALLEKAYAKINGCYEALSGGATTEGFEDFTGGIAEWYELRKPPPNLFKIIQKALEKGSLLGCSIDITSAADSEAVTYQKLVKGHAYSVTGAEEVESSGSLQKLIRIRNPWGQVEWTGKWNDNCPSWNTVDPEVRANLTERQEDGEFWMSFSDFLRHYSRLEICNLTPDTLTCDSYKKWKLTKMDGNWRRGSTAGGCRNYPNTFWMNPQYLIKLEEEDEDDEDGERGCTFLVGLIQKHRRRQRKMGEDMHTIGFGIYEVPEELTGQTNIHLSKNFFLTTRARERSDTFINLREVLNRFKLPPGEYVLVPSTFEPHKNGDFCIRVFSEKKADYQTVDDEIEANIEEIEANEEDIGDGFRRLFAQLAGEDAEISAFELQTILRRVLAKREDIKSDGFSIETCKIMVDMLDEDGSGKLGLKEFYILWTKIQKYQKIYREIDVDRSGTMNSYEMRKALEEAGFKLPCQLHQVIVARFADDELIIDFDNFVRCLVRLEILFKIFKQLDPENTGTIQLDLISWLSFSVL
T1 sequence (Q64537 1-270 partner): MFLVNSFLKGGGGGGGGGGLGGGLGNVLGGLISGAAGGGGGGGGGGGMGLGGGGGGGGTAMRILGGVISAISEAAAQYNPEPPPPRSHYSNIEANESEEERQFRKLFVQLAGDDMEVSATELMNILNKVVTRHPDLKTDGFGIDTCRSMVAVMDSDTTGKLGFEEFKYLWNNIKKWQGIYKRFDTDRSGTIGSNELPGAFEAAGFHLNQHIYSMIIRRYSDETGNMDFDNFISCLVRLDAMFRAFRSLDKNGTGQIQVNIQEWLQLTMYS
Description: According to the method previously described (Journal of Biological Chemistry, 259, 12489 (1984)), inhibitory activity of several compounds were determined with m-calpain which was extracted and purified from rat brain by means of the method described in Journal of Biological Chemistry, 259, 3210 (1984). The results are summarized in the following table in which the data for NCO-700 (Arzneimittel Forschung/Drug Research 36, 190 (1986)) and for MDL 28170 (Biochemical and Biophysical Research Communications, 157, 1117 (1988)) are those disclosed in the references.

calpain I = target: T2, calpain I (Homo sapiens, UniProt P07384); assay: conversion of 80KDa calpain I to 76KDa form in erythrocyte incubated with calcium; format: cell-based; conditions: human erythrocyte incubated in the presence of calcium
T2 construct: endogenous in cells; host or cells: human erythrocyte
T2 sequence (P07384 1-714): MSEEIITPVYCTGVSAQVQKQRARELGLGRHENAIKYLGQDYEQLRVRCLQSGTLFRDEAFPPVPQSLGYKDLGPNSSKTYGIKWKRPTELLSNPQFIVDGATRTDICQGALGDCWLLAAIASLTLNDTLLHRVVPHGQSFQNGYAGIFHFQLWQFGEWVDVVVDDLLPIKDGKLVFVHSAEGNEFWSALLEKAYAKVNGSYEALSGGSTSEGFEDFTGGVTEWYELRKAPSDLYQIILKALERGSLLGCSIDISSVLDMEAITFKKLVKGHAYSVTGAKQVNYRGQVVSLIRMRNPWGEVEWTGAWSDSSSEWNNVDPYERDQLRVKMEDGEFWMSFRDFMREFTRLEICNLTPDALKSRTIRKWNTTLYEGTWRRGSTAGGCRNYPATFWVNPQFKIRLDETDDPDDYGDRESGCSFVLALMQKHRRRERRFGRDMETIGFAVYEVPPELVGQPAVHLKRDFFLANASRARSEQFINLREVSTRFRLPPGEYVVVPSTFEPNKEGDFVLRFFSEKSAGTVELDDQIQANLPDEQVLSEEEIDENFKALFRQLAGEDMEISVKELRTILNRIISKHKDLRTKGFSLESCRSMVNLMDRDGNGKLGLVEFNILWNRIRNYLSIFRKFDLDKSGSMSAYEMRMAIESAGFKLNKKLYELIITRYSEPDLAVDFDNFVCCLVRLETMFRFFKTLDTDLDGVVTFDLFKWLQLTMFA
T2 sequence (P04632 1-268 partner): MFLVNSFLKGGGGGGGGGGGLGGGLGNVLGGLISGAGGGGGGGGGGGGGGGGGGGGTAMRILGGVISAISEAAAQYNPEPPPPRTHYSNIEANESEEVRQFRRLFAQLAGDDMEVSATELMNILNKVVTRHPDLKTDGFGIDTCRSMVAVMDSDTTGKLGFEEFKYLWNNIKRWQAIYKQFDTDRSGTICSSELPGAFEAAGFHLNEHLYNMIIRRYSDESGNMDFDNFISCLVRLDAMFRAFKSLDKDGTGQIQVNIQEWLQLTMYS
Text: Calpain I is partially purified from post-mortem brain. Fraction containing crude calpain I is subjected to electrophoresis, and reacted with monoclonal antibody to human calpain I (Biochemical Journal, 246, 481 (1987); Biochemical Journal, 261, 1039 (1989)) to show three bands. Molecular weights of these bands are 80KDa, 78KDa, and 76KDa, respectively, and are identical to those in erythrocyte (Biochemical Journal, 246, 482 (1987); Biochemical Journal, 261, 1039 (1989)). When human erythrocyte is incubated in the presence of calcium, the 80KDa band disappears and the 76KDa band appears. This reaction is inhibited by leupeptine which is a calpain inhibitor. Furthermore, there exists a good correlation between the amount of the 76KDa protein and the enzyme activity. […] This transformation from 80KDa to 76KDa in the presence of calcium can also be observed with slice specimens of post-mortem human brain.

**Q.** With `CCOC(=O)[C@H]1O[C@@H]1C(=O)N[C@@H](CC(C)C)C(=O)NCCC(C)C` [E-64-d] as the compound, how does the LD₅₀ (mouse; po) read?
**A.** The LD₅₀ was greater than 2000 mg/kg.

**Q.** For `CC(C)CCNC(=O)[C@H](CC(C)C)NC(=O)[C@H]1O[C@@H]1C(=O)O` [E-64-c], which LD₅₀ (mouse; po) is on record?
**A.** The LD₅₀ was greater than 2000 mg/kg.

**Q.** What does the source list for `CCOC(=O)[C@@H]1O[C@H]1C(=O)NC(CC(C)C)C(=O)N1CCN(Cc2ccc(OC)c(OC)c2OC)CC1.CCOC(=O)[C@@H]1O[C@H]1C(=O)NC(CC(C)C)C(=O)N1CCN(Cc2ccc(OC)c(OC)c2OC)CC1.O=S(=O)(O)O` (some centres unmarked) [NCO-700]?
**A.** LD₅₀ (mouse; iv): 374 mg/kg; IC50 (calpain; value disclosed in Arzneimittel Forschung/Drug Research 36, 190 (1986), read-out: calpain inhibitory activity IC₅₀): 46000 nM

**Q.** With `CCCCC(C=O)NC(=O)C(CC(C)C)NC(=O)OCc1ccccc1` (centres unmarked) [carpeptine] as the compound, how does the IC50 (m-calpain) read?
**A.** The IC50 was 46 nM.

**Q.** Which “disappearance of 80KDa band and appearance of 76KDa band of calpain I” value (calpain I) does the source give for `CC(=O)NC(CC(C)C)C(=O)NC(CC(C)C)C(=O)NC(C=O)CCCNC(=N)N` (centres unmarked) [leupeptine] here?
**A.** Its value is “inhibited”.

**Q.** What about the IC50 (m-calpain) of the same compound?
**A.** Its IC50 is 360 nM.

**Q.** With `CC(C)CC(NC(=O)[C@H]1O[C@@H]1C(=O)O)C(=O)NCCCCNC(=N)N` (some centres unmarked) [E-64] as the compound, how does the IC50 (m-calpain) read?
**A.** The IC50 was 960 nM.

**Q.** And the LD₅₀ (mouse; po)?
**A.** Its LD₅₀ is greater than 2000 mg/kg.

**Q.** For `CC(C)[C@H](NC(=O)OCc1ccccc1)C(=O)N[C@H](C=O)Cc1ccccc1` [MDL 28170] (Cbz-Val-Phe-aldehyde), which Ki (calpain; value disclosed in Biochemical and Biophysical Research Communications, 157, 1117 (1988), read-out: calpain inhibitory activity Ki) is on record?
**A.** Its Ki is 7 nM.

**Q.** With `NC(N)=NCCCCNC(=O)[C@H](Cc1ccccc1)NC(=O)C1OC1C(=O)O` (some centres unmarked) [estatine A] as the compound, how does the LD₅₀ (mouse; ip) read?
**A.** The LD₅₀ was greater than 400 mg/kg.
